Tests used:
H9-HIV cells = assay: Intracellular cellular and retroviral proteins by flow cytometry in H9-HIV cells; format: cell-based
Description: Intracellular antigens were determined, as geometric means of fluorescence, by flow cytometric analysis using a BD FACSCalibur™ and its BD FACStation System™ (Becton Dickinson; San Jose, Calif.). Intracellular antigens were stained according to the instrument producer's instructions.
CD4+ T cells isolated from infected individuals have increased Bcl-2 levels compared to uninfected lymphocytes and some reports implicate HIV-1 Tat in preventing apoptosis in persistently infected cells by inducing the transcription of Bcl-2. Since CPX blocks HIV-1 gene expression, Bcl-2 expression in H9 and H9-HIV cells was determined. […] Retroviral proteins can also control apoptosis. Therefore, assays were carried out to measure the response of individual retroviral proteins in H9-HIV (FIG. 10C) to the shut-down of the HIV-1 promoter by CPX. […] Vpr induces apoptosis via caspase-3 activation.

HIV-1 RNA = assay: RNase protection assay of HIV RNA from molecular clones in 293T cells; format: cell-based; settings: for accumulation of FF mRNA: pNL4-3-LucE- in 293T; for reduction of spliced and unspliced HIV RNAs: pNL4-3-LucE-, cytoplasmic and nuclear fractions, 12 hr
Description: 293T cells (2×10^6 cells) were seeded in 10-cmdiameter plates and transfected 20 hr later by using Transfectene (Bio-Rad) and treated with compounds. Cells were harvested at 15 hr post-transfection and suspended in a low salt buffer (10 mM Tris.HCl pH 7.4, 10 mM NaCl, 1.5 mM MgCl2, and 0.5% NP-40). Cells were vortexed for 10 sec and incubated on ice for 10 min. Cell extracts were centrifuged at 500×g for 3 min, followed by cytoplasmic and nuclear RNA isolation from the supernatant and the pellet, respectively, using Trizol (Invitrogen) according to the manufacturer's instructions.
RPA was performed with 10 μg of cytoplasmic RNA and 5 μg of nuclear RNA, using the RPAIII kit from Ambion (Austin, Tex.) according to the manufacturer's instructions. Synthesis of radiolabeled RNA and protection assays were performed as described in Young et al. Mol Cell Biol 2003, 23:6373-6384. To generate antisense RNA probe against the HIV-1 major splice site, firefly luciferase and Renilla luciferase pBSII-KS+HIV (+80-341), pSP-luc and pSP-rluc were linearized with HindIII, XbaI and BsaI, respectively. The resulting probes were 309, 390 and 245 nt long, respectively. The antisense HIV-1 leader RNA probe complementary to nt+83 to −117 of the LTR was generated by subcloning between the XbaI and HindIII sites of the pcDNA3.1 vector. Antisense probe corresponding to the N terminus of eIF5A was generated by subcloning 250 nt of its cDNA sequence into pcDNA3.1.
Next, the effects of CPX and DEF on viral mRNA expression were examined. […] To determine whether the action of CPX and DEF is exerted at the level of the accumulation, splicing or nucleo-cytoplasmic distribution of HIV RNA, pNL4-3-LucE- was transfected into 293T cells and monitored spliced and unspliced HIV RNA after drug treatment. RNase protection assays were carried out using a probe complementary to the 5′ region of all HIV-1 transcripts (Zheng et al. Nat Cell Biol 2003, 5:611-618). The probe spans the major splice donor site so two sizes of protected fragments are generated: unspliced RNA protects an RNA fragment 50 nucleotides (nt) longer than that from spliced RNAs (FIG. 4A). CPX and DEF, but not P2, reduced the level of both spliced and unspliced RNAs by ˜50% (FIG. 4B). […] In contrast, the production of Renilla luciferase RNA driven by the CMV promoter was unchanged in the nucleus and cytoplasm after drug treatment (FIG. 4B). […]
The rev-defective molecular clone pMRev(−) contains the entire HIV-1 genome but Rev expression is prevented by substitutions in its initiation codon. To compare the inhibitory effect of CPX and DEF in the presence and absence of Rev, cells were transfected with pMRev(−), either with or without a Rev expression vector, and RNA was analyzed by RPA as above. […]

HIV p24 = assay: p24 expression from pNL4-3-LucE- molecular clone in 293T cells; format: cell-based, HIV-1; settings: 293T cell extract; 12 hr post-transfection
Description: FIGS. 3A-D are a set of diagrams and photographs showing drug effects on luciferase expression from an HIV-1 molecular clone. A. Comparison of drug effects on luciferase expression from the pNL4-3-LucE- molecular clone in 293T cells. The molecular clone pNL4-3-LucE- and pCMV-Ren were transfected into 293T cells. Drugs were added where indicated at the following concentrations: P2 (30 μM), CPX (30 μM), DEF (250 μM), or DFOX (15 μM). Dual luciferase assays were conducted at 12 hr post-transfection. Firefly (FF) luciferase expression was normalized to Renilla luciferase (Ren) from pCMV-Ren (mean of 2 experiments in duplicate, ±SD). B. Expression in Jurkat cells was assayed essentially as in panel A. C. Firefly and Renilla luciferase RNA expression was analyzed in 293T cells treated as in panel A by RPA using 32P-[UTP] labeled antisense RNA probes corresponding to the C-termini of the FF and Ren luciferase mRNAs. D. Comparison of drug effects on p24 expression from the pNL4-3-LucE- molecular clone in 293T cells. Drugs were added where indicated to the same concentrations as in A. p24 levels were determined in cell extract at 12 hr post-transfection.
p24 core antigen in the supernatant was quantified by ELISA (Retrotek HIV-1 p24™; ZeptoMetrix Corp.; Buffalo, N.Y.). HIV-1 RNA copy number in the supernatant was determined with a PCR-based and FDA-approved assay (Amplicor HIV-1 Monitor™; Roche Diagnostics Corp.; Indianapolis, Ind.). IFN-γ and IL-10 in the supernatant were determined by cytometric bead array (Human Th1/Th2 Cytokine Kit II™; BD Biosciences Pharmingen, San Jose, Calif.).

293T cells = assay: Apoptosis and viability of untransfected 293T cells (annexin V / 7AAD); format: cell-based, human; settings: within 24 hr at concentrations used
Description: The cells were grown in DME medium (Sigma) and Jurkat cells in RPMI medium (Sigma), both supplemented with penicillin, streptomycin and 8% FBS. Quantitation of apoptosis and viability was performed with a BD FACSCalibur™ system using Annexin V-PE Apoptosis Detection Kit I (BD Biosciences, San Jose Calif.).

SMILES	active caspase-3 (H9-HIV cells; 30 μM CPX, 24 and 48 hr)	intracellular Rev (H9-HIV cells; 30 μM CPX, 24 and 48 hr)	intracellular Tat (H9-HIV cells; 30 μM CPX, 24 and 48 hr)	increase of Vpr level (H9-HIV cells; 30 μM CPX, within 24 hr) [%]	reduction of intracellular p24 (H9-HIV cells; 30 μM CPX, within 24 hr) [%]	increase of Vpr level (H9-HIV cells; 30 μM CPX, within 48 hr) [%]	reduction of intracellular p24 (H9-HIV cells; 30 μM CPX, within 48 hr) [%]	dose-dependent change in Bcl-2 content (H9-HIV cells; 24 hr, H9 and H9-HIV)	cells positive for Bcl-2 (H9-HIV cells; CPX 24 hr, irrespective of infection (H9 and H9-HIV)) [%]	accumulation of FF mRNA (HIV-1 RNA)	reduction of spliced and unspliced HIV RNAs (HIV-1 RNA) [%]	inhibition of HIV p24 expression from the molecular clone (HIV p24) [%]	293T cell death (293T cells)	response of retroviral proteins Rev, p24, Tat, Vpr (H9-HIV cells; DEF)
Cc1cc(C2CCCCC2)n(O)c(=O)c1 [CPX, 6-cyclohexyl-1-hydroxy-4-methylpyridin-2[1H]-one]	the increase in Vpr paralleled that of active caspase-3	only marginally affected	similarly reduced	~15	30	~70	70	neither of these measures achieved statistical significance	~35	decreased accumulation of FF mRNA	~50	~60	marginal 293T cell death	–
Cc1c(O)c(=O)ccn1C [DEF, 3-hydroxy-1,2-dimethylpyridin-4(1H)-one]	–	–	–	–	–	–	–	–	–	decreased accumulation of FF mRNA	~50	~60	marginal 293T cell death	sparing Rev, decreasing p24 and Tat, and increasing Vpr

From patent US20120225093A1, “Abrogating HIV-1 Infection via Drug-Induced Reactivation of Apoptosis” (UNIVERSITY OF MEDICINE AND DENTISTRY OF NEW JERSEY, priority 2010, published 2012)
